Columns and labels:
SJSA-1 xenograft model = details: cited from earlier work; for tumor growth in SJSA-1 xenograft model: high oral doses (200–300 mg/kg) ref 8, 21
[1] = system: p53 activation in SJSA-1 osteosarcoma cell line; experiment: Western blot analysis of p53 activation and PARP cleavage in SJSA-1 cells; assay type: cell-based, human; details: for full-length PARP (apoptosis induction) / p53 activation (accumulation of p53, MDM2 and p21): 24 h
[2] = system: p53 activation and apoptosis in SJSA-1 xenograft tumor tissues; experiment: Pharmacodynamics study in SJSA-1 xenograft tumor tissues
[3] = single oral dose 100 mg/kg, 24 h

Structure (SMILES) | complete tumor regression (SJSA-1 xenograft model) | tumor growth in SJSA-1 xenograft model (SJSA-1 xenograft model) | full-length PARP (apoptosis induction) ([1]; Western blot) | p53 activation (accumulation of p53, MDM2 and p21) ([1]; Western blot) | times more potent than 2 in p53 activation [1] | times more potent than Nutlin-3a in p53 activation [1] [times] | lowest concentration activating p53 (clear accumulation of p21 and p53) ([1]; Western blot) [nM] | cleavage of PARP and caspase-3 in tumor tissue ([2]; single oral dose 100 mg/kg, 1, 3 and 6 h) | p53, p21 and MDM2 protein levels in tumor tissue ([2]; single oral dose 100 mg/kg, 3 h and 6 h) | cleavage of PARP and caspase-3 in tumor tissue [2, 3] | p53, p21 and MDM2 protein levels in tumor tissue [2, 3]
CC(C)(C)C[C@H]1N[C@@H](C(=O)NCC[C@H](O)CO)[C@H](c2cccc(Cl)c2)[C@@]12C(=O)Nc1cc(Cl)c(F)cc12 [Compound 1] | failed to achieve complete tumor regression | inhibited tumor growth | – | – | – | – | – | – | – | – | –
CC(C)(C)C[C@@H]1N[C@@H](C(=O)NCC[C@H](O)CO)[C@H](c2cccc(Cl)c2F)[C@]12C(=O)Nc1cc(Cl)ccc12 [Compound 2] | failed to achieve complete tumor regression | inhibited tumor growth | dose-dependently diminished | effectively and dose-dependently activate p53 | – | – | – | – | – | – | –
CC(C)(C)C[C@@H]1N[C@@H](C(=O)N[C@H]2C[C@@](C)(O)C2)[C@H](c2cccc(Cl)c2F)[C@]12C(=O)Nc1cc(Cl)ccc12 [Compound 9] | – | – | dose-dependently diminished | effectively and dose-dependently activate p53 | at least 3 times | 10 | 30 | minimal | robust upregulation | very clear | significantly diminished
COc1ccc(C2=N[C@@H](c3ccc(Cl)cc3)[C@@H](c3ccc(Cl)cc3)N2C(=O)N2CCNC(=O)C2)c(OC(C)C)c1 [Nutlin-3a, reference compound] | – | – | dose-dependently diminished | effectively and dose-dependently activate p53 | – | – | – | – | – | – | –

Reference: PMC3880646 (Journal of medicinal chemistry, 2013)
